Source: the supplement of paper PMC10307832

Columns and labels:
Test in all cases: relative viability (nuclei count vs DMSO), 5 days (fraction); higher = more cells survive
[1] = compound: C[C@]1(O)C[C@@H](c2nc(-c3ccc4ccc(-c5ccccc5)nc4c3)c3c(N)nccn32)C1 [Linsitinib] + C[C@@H](Oc1cc(-c2cnn(C3CCNCC3)c2)cnc1N)c1c(Cl)ccc(F)c1Cl [Crizotinib] (partner 1 µM)
Outline: (§1)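 Lung cancer cell lines in 1536-well plates got either a single drug or a fixed anchor-drug dose together with five library-drug doses (not always all listed) in √10 steps, by pin tool, on the day after seeding. Nuclei were counted after 5 days, and relative viability is the treated-to-vehicle ratio of nuclei counts. Values are medians of duplicate plates.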

[2] = compound: C[C@]1(O)C[C@@H](c2nc(-c3ccc4ccc(-c5ccccc5)nc4c3)c3c(N)nccn32)C1 [Linsitinib] + O=C(c1cc(Cc2n[nH]c(=O)c3ccccc23)ccc1F)N1CCN(C(=O)C2CC2)CC1 [Olaparib] (partner 8 µM)
Outline: as §1

[3] = compound: Cc1ccc(C(=O)N(CCCN)[C@@H](c2nc3cc(Cl)ccc3c(=O)n2Cc2ccccc2)C(C)C)cc1 [Ispinesib] + CC(C)C[C@H](NC(=O)[C@H](Cc1ccccc1)NC(=O)c1cnccn1)B(O)O [Bortezomib] (partner 0.002 µM)
Outline: as §1

[4] = compound: Cc1ccc(C(=O)N(CCCN)[C@@H](c2nc3cc(Cl)ccc3c(=O)n2Cc2ccccc2)C(C)C)cc1 [Ispinesib] + Nc1ncn([C@H]2C[C@H](O)[C@@H](CO)O2)c(=O)n1 [Decitabine] (partner 2 µM)
Outline: as §1

Cell Line | relative viability ([1]; first compound 0.01 µM) | relative viability ([1]; first compound 0.03162 µM) | relative viability ([1]; first compound 0.1 µM) | relative viability ([1]; first compound 0.3162 µM) | relative viability ([1]; first compound 1 µM) | relative viability ([2]; first compound 0.01 µM) | relative viability ([2]; first compound 0.03162 µM) | relative viability ([2]; first compound 0.1 µM) | relative viability ([2]; first compound 0.3162 µM) | relative viability ([2]; first compound 1 µM) | relative viability ([3]; first compound 0.001 µM) | relative viability ([3]; first compound 0.003162 µM) | relative viability ([3]; first compound 0.01 µM) | relative viability ([3]; first compound 0.03162 µM) | relative viability ([3]; first compound 0.1 µM) | relative viability ([4]; first compound 0.001 µM) | relative viability ([4]; first compound 0.003162 µM) | relative viability ([4]; first compound 0.01 µM) | relative viability ([4]; first compound 0.03162 µM) | relative viability ([4]; first compound 0.1 µM)
NCI-H596 | 0.969 | 1.08 | 0.969 | 0.987 | 1.04 | 0.736 | 0.614 | 0.677 | 0.66 | 0.604 | 1.14 | 1.22 | 1.12 | 1.08 | 0.463 | 1.02 | 1.89 | 1.15 | 1.02 | 0.885
NCI-H647 | 1.08 | 1.01 | 1.14 | – | 0.987 | 0.472 | 0.509 | 0.735 | 0.442 | 0.48 | 0.98 | 0.849 | 0.655 | 0.16 | 0.167 | 0.49 | 0.409 | 0.326 | 0.179 | 0.157
NCI-H650 | 0.736 | 0.907 | 0.857 | – | 0.703 | 0.381 | 0.537 | 0.405 | – | 0.398 | 0.875 | 1.25 | 0.826 | 0.582 | 0.355 | 0.289 | 0.325 | 0.328 | 0.33 | 0.306
NCI-H661 | – | 0.862 | 1.04 | 0.85 | 0.93 | 0.665 | 0.666 | 0.751 | 0.749 | 0.744 | 0.821 | 0.78 | 0.688 | 0.771 | 0.665 | 0.614 | 0.567 | 0.511 | 0.264 | 0.231
NCI-H727 | 0.839 | 0.905 | 0.743 | 0.727 | 0.601 | 0.694 | 0.773 | 0.747 | 0.449 | 0.601 | – | 1.71 | 1.21 | 0.762 | 0.337 | 0.651 | 0.864 | – | 0.737 | 0.761
NCI-H838 | 0.787 | 0.704 | 0.826 | 0.673 | 0.64 | 0.754 | 0.722 | 0.73 | 0.482 | 0.533 | 0.745 | 0.9 | 0.991 | 0.674 | 0.23 | 0.457 | 0.45 | 0.46 | 0.236 | 0.181
NCI-H1355 | 0.974 | 0.997 | 0.888 | 0.79 | 0.664 | 0.741 | 0.742 | 0.628 | 0.483 | 0.353 | 1.28 | 1.23 | 1.43 | 0.815 | 0.293 | 0.364 | 0.364 | 0.405 | 0.33 | 0.307
NCI-H1437 | 0.897 | 0.75 | 0.993 | 0.853 | 0.972 | 0.636 | 0.632 | 0.667 | 0.636 | 0.584 | 0.451 | 0.608 | 0.592 | 0.487 | 0.134 | 0.552 | 0.605 | 0.677 | 0.652 | 0.228
